Settings: for kinematic viscosity: Liquid, Scattered Light Surfacing

CCF [fluoroethane]
Settings	surface tension liquid-gas [mN/m]
244.13 K, Capillary rise	16.72
246.15 K, Capillary rise	16.42
248.13 K, Capillary rise	16.18
250.05 K, Capillary rise	15.87
252.1 K, Capillary rise	15.59
254.15 K, Capillary rise	15.26
256.05 K, Capillary rise	14.97
258.13 K, Capillary rise	14.69
260.05 K, Capillary rise	14.38
262.08 K, Capillary rise	14.13
264.13 K, Capillary rise	13.85
266.1 K, Capillary rise	13.58
268.08 K, Capillary rise	13.27
270.1 K, Capillary rise	13
272.04 K, Capillary rise	12.69
274.1 K, Capillary rise	12.4
276.03 K, Capillary rise	12.08
278.14 K, Capillary rise	11.81
280.14 K, Capillary rise	11.54
282.14 K, Capillary rise	11.25
284.14 K, Capillary rise	10.95
286.12 K, Capillary rise	10.67
288.13 K, Capillary rise	10.38
290.12 K, Capillary rise	10.1
292.13 K, Capillary rise	9.82
293.43 K, Surface Light Scattering	9.46
294.12 K, Capillary rise	9.53
296.12 K, Capillary rise	9.24
298.1 K, Capillary rise	8.96
300.11 K, Capillary rise	8.66
302.17 K, Capillary rise	8.37
303.14 K, Surface Light Scattering	8.16
304.11 K, Capillary rise	8.08
305.13 K, Capillary rise	7.95
306.12 K, Capillary rise	7.83
308.12 K, Capillary rise	7.54
310.18 K, Capillary rise	7.27
312.17 K, Capillary rise	7
313.11 K, Surface Light Scattering	6.78
314.18 K, Capillary rise	6.71
316.17 K, Capillary rise	6.44
318.16 K, Capillary rise	6.17
320.17 K, Capillary rise	5.86
322.18 K, Capillary rise	5.61
323.14 K, Surface Light Scattering	5.46
324.18 K, Capillary rise	5.39
326.17 K, Capillary rise	5.08
328.16 K, Capillary rise	4.84
330.17 K, Capillary rise	4.6
332.17 K, Capillary rise	4.33
333.15 K, Surface Light Scattering	4.2
334.16 K, Capillary rise	4.1
343.14 K, Surface Light Scattering	3
353.12 K, Surface Light Scattering	1.89
363.11 K, Surface Light Scattering	0.92
373.09 K, Surface Light Scattering	0.13

Settings	kinematic viscosity [m2/s]
293.43 K	1.81e-07
303.14 K	1.66e-07
313.11 K	1.52e-07
323.14 K	1.42e-07
333.15 K	1.32e-07
343.14 K	1.22e-07
353.12 K	1.12e-07
363.11 K	1.03e-07
373.09 K	8.97e-08
